tested on: Aβ production; assay: Cellular Aβ IC50 determination (memapsin 2 activity in a cellular assay of Aβ production); format: cell-based, Chinese hamster; conditions: Cricetulus griseus; Chinese hamster ovary cells over-expressing human APP695 with London and Swedish mutations, 24 h, Aβ40 sandwich ELISA; read-out: M2 IC50
Procedure: The potency of compounds against memapsin 2 activity was determined in a cellular assay of Aβ production. […] Chinese hamster ovary cells that over-express human APP695 with the London and Swedish mutations were seeded in multi-well plates at 10% confluency. Compounds are dissolved in DMSO to concentrations near 1 mM, and diluted into culture media to a final concentration near 4 μM (final 0.4% DMSO). Compounds were diluted serially and applied to cells in multi-well plates 48 h after seeding. Incubation was continued in 5% CO2 at 37° C. for 24 h. Aliquots were removed and assayed for […] content using a sandwich ELISA (BioSource International). Amount of Aβ40 over the range of concentration of compounds, relative to control incubations, were fit to a 4-parameter IC50 model.

Structure (SMILES)	IC50
Cc1csc([C@H]2CCCN2C(=O)c2cc(F)cc(C(=O)N[C@@H](Cc3ccccc3)[C@H](O)[C@H]3CCCN3)c2)n1 [1-32, 3-fluoro-N-((1R,2S)-1-hydroxy-3-phenyl-1-((R)-pyrrolidin-2-yl)propan-2-yl)-5-((R)-2-(4-methylthiazol-2-yl)pyrrolidine-1-carbonyl)benzamide]	> 1000 nM
COc1cc(C(=O)N[C@@H](Cc2ccccc2)[C@H](O)[C@H]2CCCN2)cc(C(=O)N2CCC[C@@H]2c2nc(C)cs2)c1 [1-34, N-((1R,2S)-1-hydroxy-3-phenyl-1-((R)-pyrrolidin-2-yl)propan-2-yl)-3-methoxy-5-((R)-2-(4-methylthiazol-2-yl)pyrrolidine-1-carbonyl)benzamide]	> 1000 nM
Cc1csc([C@H]2CCCN2C(=O)c2cc(CF)cc(C(=O)N[C@@H](Cc3ccccc3)[C@H](O)[C@H]3C[C@@H](OCc4ccccc4)CN3)c2)n1 [1-36, N-((1R,2S)-1-((2R,4R)-4-(benzyloxy)pyrrolidin-2-yl)-1-hydroxy-3-phenylpropan-2-yl)-3-(fluoromethyl)-5-((R)-2-(4-methylthiazol-2-yl)pyrrolidine-1-carbonyl)benzamide]	< 500 nM
Cc1csc([C@H]2CCCN2C(=O)c2cc(C(=O)N[C@@H](Cc3ccccc3)[C@H](O)[C@H]3CCCN3)cc(N3CCCC3=O)c2)n1 [1-39, N-((1R,2S)-1-hydroxy-3-phenyl-1-((R)-pyrrolidin-2-yl)propan-2-yl)-3-((R)-2-(4-methylthiazol-2-yl)pyrrolidine-1-carbonyl)-5-(2-oxopyrrolidin-1-yl)benzamide]	< 500 nM
Cc1csc([C@H]2CCCN2C(=O)c2cccc(C(=O)N[C@@H](Cc3ccccc3)[C@H](O)[C@H]3CCCN3)c2)n1 [1-40, N-((1R,2S)-1-hydroxy-3-phenyl-1-((R)-pyrrolidin-2-yl)propan-2-yl)-3-((R)-2-(4-methylthiazol-2-yl)pyrrolidine-1-carbonyl)benzamide]	500 to 1000 nM
Cc1csc(CN(C)C(=O)c2cccc(C(=O)N[C@@H](Cc3cc(F)cc(F)c3)[C@H](O)[C@H]3CCCN3)c2)n1 [1-41, N1-((1R,2S)-3-(3,5-difluorophenyl)-1-hydroxy-1-((R)-pyrrolidin-2-yl)propan-2-yl)-N3-methyl-N3-((4-methylthiazol-2-yl)methyl)isophthalamide]	> 1000 nM
Cc1csc([C@H]2CCCN2C(=O)c2cc(C(=O)N[C@@H](Cc3ccccc3)[C@H](O)[C@H]3CCCN3)cc(N(C)C)c2)n1 [1-42, 3-(dimethylamino)-N-((1R,2S)-1-hydroxy-3-phenyl-1-((R)-pyrrolidin-2-yl)propan-2-yl)-5-((R)-2-(4-methylthiazol-2-yl)pyrrolidine-1-carbonyl)benzamide]	> 1000 nM
Cc1csc([C@H]2CCCN2C(=O)c2cc(C(=O)N[C@@H](Cc3ccccc3)[C@H](O)[C@H]3CCCN3)cc(-c3cccc(C(F)(F)F)c3)c2)n1 [1-43, N-((1R,2S)-1-hydroxy-3-phenyl-1-((R)-pyrrolidin-2-yl)propan-2-yl)-5-((R)-2-(4-methylthiazol-2-yl)pyrrolidine-1-carbonyl)-3′-(trifluoromethyl)biphenyl-3-carboxamide]	> 1000 nM
Cc1csc([C@H]2CCCN2C(=O)c2cccc(C(=O)N[C@@H](Cc3cc(F)cc(F)c3)[C@H](O)[C@H]3CCCN3)c2)n1 [1-44, N-((1R,2S)-3-(3,5-difluorophenyl)-1-hydroxy-1-((R)-pyrrolidin-2-yl)propan-2-yl)-3-((R)-2-(4-methylthiazol-2-yl)pyrrolidine-1-carbonyl)benzamide]	500 to 1000 nM
Cc1csc([C@H]2CCCN2C(=O)c2cccc(C(=O)N[C@@H](Cc3ccccc3)[C@H](O)[C@H]3C[C@H](F)CN3)c2)n1 [1-47, N-((1R,2S)-1-((2R,4S)-4-fluoropyrrolidin-2-yl)-1-hydroxy-3-phenylpropan-2-yl)-3-((R)-2-(4-methylthiazol-2-yl)pyrrolidine-1-carbonyl)benzamide]	> 1000 nM
Cc1csc([C@H]2CCCN2C(=O)c2cc(C(=O)N[C@@H](Cc3ccccc3)[C@H](O)[C@H]3CCCN3)cc(C3CC3)c2)n1 [1-50, 3-cyclopropyl-N-((1R,2S)-1-hydroxy-3-phenyl-1-((R)-pyrrolidin-2-yl)propan-2-yl)-5-((R)-2-(4-methylthiazol-2-yl)pyrrolidine-1-carbonyl)benzamide]	> 1000 nM
Cc1csc([C@H]2CCCN2C(=O)c2cccc(C(=O)N[C@@H](Cc3ccccc3)[C@H](O)[C@H]3CC[C@@H](C)N3)c2)n1 [1-51, N-((1R,2S)-1-hydroxy-1-((2R,5R)-5-methylpyrrolidin-2-yl)-3-phenylpropan-2-yl)-3-((R)-2-(4-methylthiazol-2-yl)pyrrolidine-1-carbonyl)benzamide]	> 1000 nM
Cc1csc([C@H]2CCCN2C(=O)c2cncc(C(=O)N[C@@H](Cc3ccccc3)[C@H](O)CNCc3cc(Cl)nc(N(C)C)c3)c2)n1 [2-1, N-((2S,3R)-4-((2-chloro-6-(dimethylamino)pyridin-4-yl)methylamino)-3-hydroxy-1-phenylbutan-2-yl)-5-((R)-2-(4-methylthiazol-2-yl)pyrrolidine-1-carbonyl)nicotinamide, reference compound]	< 500 nM
Cc1csc([C@H]2CCCN2C(=O)c2cc(C(=O)N[C@@H](Cc3ccccc3)[C@H](O)CNCc3cncc(C(C)C)c3)cc(-c3ccco3)c2)n1 [2-2, 3-(furan-2-yl)-N-((2S,3R)-3-hydroxy-4-((5-isopropylpyridin-3-yl)methylamino)-1-phenylbutan-2-yl)-5-((R)-2-(4-methylthiazol-2-yl)pyrrolidine-1-carbonyl)benzamide, reference compound]	< 500 nM
Cc1cc(C(=O)N[C@@H](Cc2ccccc2)[C@H](O)CNCc2cncc(C(C)(C)C)c2)cc(C(=O)N2CCC[C@@H]2c2nc(C)co2)c1 [2-3, N-((2S,3R)-4-((5-tert-butylpyridin-3-yl)methylamino)-3-hydroxy-1-phenylbutan-2-yl)-3-methyl-5-((R)-2-(4-methyloxazol-2-yl)pyrrolidine-1-carbonyl)benzamide, reference compound]	< 500 nM
CCn1cc(CNC[C@@H](O)[C@H](Cc2ccccc2)NC(=O)c2cc(C)cc(C(=O)N3CCC[C@@H]3c3nc(C)co3)c2)cn1 [2-5, N-((2S,3R)-4-((1-ethyl-1H-pyrazol-4-yl)methylamino)-3-hydroxy-1-phenylbutan-2-yl)-3-methyl-5-((R)-2-(4-methyloxazol-2-yl)pyrrolidine-1-carbonyl)benzamide, reference compound]	< 500 nM

Continued, values first:

IC50	Structure (SMILES)
> 1000 nM	Cc1csc([C@H]2CCCN2C(=O)c2cc(C(=O)N[C@@H](Cc3ccccc3)[C@H](O)[C@H]3CCCN3)cc(N3CCOCC3)c2)n1 [1-33, N-((1R,2S)-1-hydroxy-3-phenyl-1-((R)-pyrrolidin-2-yl)propan-2-yl)-3-((R)-2-(4-methylthiazol-2-yl)pyrrolidine-1-carbonyl)-5-morpholinobenzamide]
> 1000 nM	Cc1csc([C@H]2CCCN2C(=O)c2cc(CF)cc(C(=O)N[C@H](Cc3ccccc3)[C@H](O)[C@H]3C[C@@H](OCc4ccccc4)CN3)c2)n1 [1-45, N-((1R,2R)-1-((2R,4R)-4-(benzyloxy)pyrrolidin-2-yl)-1-hydroxy-3-phenylpropan-2-yl)-3-(fluoromethyl)-5-((R)-2-(4-methylthiazol-2-yl)pyrrolidine-1-carbonyl)benzamide]
500 to 1000 nM	Cc1csc([C@H]2CCCN2C(=O)c2cc(C(=O)N[C@@H](Cc3ccccc3)[C@H](O)[C@H]3CCCN3)cc(N3CCC(F)(F)CC3)c2)n1 [1-46, 3-(4,4-difluoropiperidin-1-yl)-N-((1R,2S)-1-hydroxy-3-phenyl-1-((R)-pyrrolidin-2-yl)propan-2-yl)-5-((R)-2-(4-methylthiazol-2-yl)pyrrolidine-1-carbonyl)benzamide]
> 1000 nM	Cc1csc([C@H]2CCCN2C(=O)c2cccc(C(=O)N[C@@H](Cc3ccccc3)[C@H](O)[C@@H]3CCCN3)c2)n1 [1-48, N-((1R,2S)-1-hydroxy-3-phenyl-1-((S)-pyrrolidin-2-yl)propan-2-yl)-3-((R)-2-(4-methylthiazol-2-yl)pyrrolidine-1-carbonyl)benzamide]
< 500 nM	Cc1csc([C@H]2CCCN2C(=O)c2cc(C(=O)N[C@@H](Cc3cc(F)cc(F)c3)[C@H](O)[C@H]3CCCN3)cc(-c3ncco3)c2)n1 [1-49, N-((1R,2S)-3-(3,5-difluorophenyl)-1-hydroxy-1((R)-pyrrolidin-2-yl)propan-2-yl)-3-((R)-2-(4-methylthiazol-2-yl)pyrrolidine-1-carbonyl)-5-(oxazol-2-yl)benzamide]
< 500 nM	Cc1csc([C@H]2CCCN2C(=O)c2cc(C(=O)N[C@@H](Cc3ccccc3)[C@H](O)[C@H]3C[C@@H](OCc4ccccc4)CN3)cc(-c3ncco3)c2)n1 [1-52, N-((1R,2S)-1-((2R,4R)-4-(benzyloxy)pyrrolidin-2-yl)-1-hydroxy-3-phenylpropan-2-yl)-3-((R)-2-(4-methylthiazol-2-yl)pyrrolidine-1-carbonyl)-5-(oxazol-2-yl)benzamide]
500 to 1000 nM	Cc1csc([C@H]2CCCN2C(=O)c2cccc(C(=O)N[C@@H](Cc3cccc(F)c3)[C@H](O)[C@H]3CCCN3)c2)n1 [1-53, N-((1R,2S)-3-(3-fluorophenyl)-1-hydroxy-1-((R)-pyrrolidin-2-yl)propan-2-yl)-3-((R)-2-(4-methylthiazol-2-yl)pyrrolidine-1-carbonyl)benzamide]
< 500 nM	Cc1coc([C@H]2CCCN2C(=O)c2cccc(C(=O)N[C@@H](Cc3ccccc3)[C@H](O)CNCc3cncc(C(C)(C)C)c3)c2)n1 [2-4, N-((2S,3R)-4-((5-tert-butylpyridin-3-yl)methylamino)-3-hydroxy-1-phenylbutan-2-yl)-3-((R)-2-(4-methyloxazol-2-yl)pyrrolidine-1-carbonyl)benzamide, reference compound]
